Active and inactive are the calls of the source. The rule behind the calls is not given here.
Assays:
MCF7 [1] = assay: Antiproliferative activity against human MCF7 cells assessed as reduction in cell growth incubated for 48 hrs in presence of Fer-1 by CCK8 assay; details: MCF7, 48 h
MCF-10A = assay: Cytotoxicity against human MCF-10A cells assessed as reduction in cell viability incubated for 48 hrs by CCK8 assay; type: cell-based
[2] = target: E3 ubiquitin-protein ligase Mdm2 (Homo sapiens, UniProt Q00987); assay: Inhibition of MDM2 (unknown origin) using peptide as substrate incubated for 30 mins by fluorescence polarization assay
MCF7 [3] = assay: Antiproliferative activity against human MCF7 cells assessed as reduction in cell growth incubated for 48 hrs by CCK8 assay; details: MCF7, 48 h
MCF7 [4] = assay: Induction of apoptosis in human MCF7 cells assessed as increase in cleaved caspase-9 level at 2 uM incubated for 48 hrs by Western blot analysis; type: functional, cell-based
[5] = target: T1, Phospholipid hydroperoxide glutathione peroxidase GPX4 (Homo sapiens) (UniProt P36969); assay: Inhibition of GPX4 in human MCF7 cells assessed as increase in GPX4 degradation incubated for 48 hrs by Western blot analysis; type: cell-based; details: dose 0.1-2 µM
T1 sequence (whole entry): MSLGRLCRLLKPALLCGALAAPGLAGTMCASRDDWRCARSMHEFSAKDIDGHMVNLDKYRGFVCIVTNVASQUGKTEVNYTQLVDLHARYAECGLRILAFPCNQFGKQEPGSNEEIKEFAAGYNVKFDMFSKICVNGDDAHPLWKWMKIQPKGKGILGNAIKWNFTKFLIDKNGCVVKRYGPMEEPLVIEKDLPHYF

MCF7 [6] = assay: Induction of apoptosis in human MCF7 cells at 0.1 to 1 uM incubated for 48 hrs in presence of Fer-1 by annexin-V-FITC and PI staining based flow cytometry analysis; type: functional, cell-based; details: dose 0.1-1 µM
MCF7 [7] = assay: Induction of apoptosis in human MCF7 cells at 0.1 to 1 uM incubated for 48 hrs by annexin-V-FITC and PI staining based flow cytometry analysis; type: functional, cell-based; details: dose 0.1-1 µM

E3 ubiquitin-protein ligase Mdm2, sequence (Q00987 whole entry): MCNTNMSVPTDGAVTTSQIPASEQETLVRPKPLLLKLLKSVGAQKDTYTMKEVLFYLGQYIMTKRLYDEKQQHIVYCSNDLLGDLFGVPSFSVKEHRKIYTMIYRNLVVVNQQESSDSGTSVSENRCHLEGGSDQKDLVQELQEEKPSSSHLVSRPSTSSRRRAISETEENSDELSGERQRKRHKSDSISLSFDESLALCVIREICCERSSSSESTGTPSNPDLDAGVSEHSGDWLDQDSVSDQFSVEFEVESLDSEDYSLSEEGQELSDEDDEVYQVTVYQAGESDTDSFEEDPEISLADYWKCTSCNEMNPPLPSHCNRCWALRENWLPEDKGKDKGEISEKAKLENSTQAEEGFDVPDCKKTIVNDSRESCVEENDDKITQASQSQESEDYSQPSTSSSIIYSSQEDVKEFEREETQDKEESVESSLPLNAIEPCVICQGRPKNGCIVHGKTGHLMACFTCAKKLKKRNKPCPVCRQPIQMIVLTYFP

SMILES | IC50 (MCF7 [1]) [µM] | Activity (MCF-10A) | Ki [2] [µM] | IC50 (MCF7 [3]) [µM] | Activity (MCF7 [4]) | inhibition [5] | Activity (MCF7 [6]) | Activity (MCF7 [7])
COc1ccccc1[C@H]1[C@H](C(F)(F)F)N[C@@]2(C(=O)Nc3ccccc32)[C@@H]1c1onc(C)c1[N+](=O)[O-] | > 20 | Non-Toxic | > 10 | 4.59 | – | – | – | –
COc1ccc(C2=NC(c3ccc(Cl)cc3)C(c3ccc(Cl)cc3)N2C(=O)N2CCNC(=O)C2)c(OC(C)C)c1 (stereo not drawn) | 15.7 | – | – | 14.6 | Active | inactive | – | –
Cc1noc([C@@H]2[C@@H](c3cccc4ccccc34)[C@H](C(F)(F)F)N[C@@]23C(=O)Nc2ccccc23)c1[N+](=O)[O-] | > 20 | Non-Toxic | – | 7.17 | – | – | – | –
Cc1noc([C@@H]2C(c3cccs3)[C@H](C(F)(F)F)N[C@@]23C(=O)Nc2ccccc23)c1[N+](=O)[O-] (single isomer, unassigned) | 19 | Non-Toxic | – | 1.53 | – | – | – | –
Cc1noc([C@@H]2C(c3ccco3)[C@H](C(F)(F)F)N[C@@]23C(=O)Nc2ccccc23)c1[N+](=O)[O-] (single isomer, unassigned) | 14.3 | Non-Toxic | – | 1.46 | – | – | – | –
Cc1noc([C@@H]2[C@@H](c3ccc(Cl)c(Cl)c3)[C@H](C(F)(F)F)N[C@@]23C(=O)Nc2ccccc23)c1[N+](=O)[O-] | > 20 | Non-Toxic | – | 3.22 | – | – | – | –
Cc1noc([C@@H]2[C@@H](c3ccccc3)[C@H](C(F)(F)F)N[C@@]23C(=O)N(C)c2ccccc23)c1[N+](=O)[O-] | > 20 | Non-Toxic | > 10 | 3.52 | – | – | – | –
Cc1noc([C@@H]2[C@@H](c3ccccc3)[C@H](c3ccccc3)N[C@@]23C(=O)Nc2ccccc23)c1[N+](=O)[O-] | > 20 | Non-Toxic | – | 5.24 | – | – | – | –
Cc1noc([C@@H]2[C@@H](c3ccccc3)[C@H](C(F)(F)F)N[C@@]23C(=O)Nc2ccc(Cl)cc23)c1[N+](=O)[O-] | 19.8 | Non-Toxic | – | 0.37 | – | – | – | –
Cc1noc([C@@H]2[C@@H](c3cccc(F)c3)[C@H](C(F)(F)F)N[C@@]23C(=O)Nc2ccccc23)c1[N+](=O)[O-] | 15.6 | Non-Toxic | – | 0.87 | – | – | – | –
C=CCN1C(=O)[C@@]2(N[C@@H](C(F)(F)F)[C@H](c3ccccc3)[C@H]2c2onc(C)c2[N+](=O)[O-])c2ccccc21 | > 20 | Non-Toxic | > 10 | 3.42 | – | – | – | –
Cc1noc([C@@H]2[C@@H](c3ccc(Br)cc3)[C@H](C(F)(F)F)N[C@@]23C(=O)Nc2ccccc23)c1[N+](=O)[O-] | 17 | Non-Toxic | – | 3.01 | – | – | – | –
Cc1noc([C@@H]2[C@@H](c3ccccc3Br)[C@H](C(F)(F)F)N[C@@]23C(=O)Nc2ccccc23)c1[N+](=O)[O-] | > 20 | Non-Toxic | > 10 | 4.71 | – | – | – | –
Cc1ccccc1[C@H]1[C@H](C(F)(F)F)N[C@@]2(C(=O)Nc3ccccc32)[C@@H]1c1onc(C)c1[N+](=O)[O-] | > 20 | Non-Toxic | > 10 | 3.5 | – | – | – | –
Cc1ccc2c(c1)[C@]1(N[C@@H](C(F)(F)F)[C@H](c3ccccc3)[C@H]1c1onc(C)c1[N+](=O)[O-])C(=O)N2 | 18.1 | Non-Toxic | – | 4.91 | – | – | – | –
Cc1noc([C@@H]2[C@@H](c3ccc(C(C)C)cc3)[C@H](C(F)(F)F)N[C@@]23C(=O)Nc2ccccc23)c1[N+](=O)[O-] | > 20 | Non-Toxic | – | 2.83 | – | – | – | –

SMILES | IC50 (MCF7 [1]) [µM] | Activity (MCF-10A) | Ki [2] [µM] | IC50 (MCF7 [3]) [µM] | Activity (MCF7 [4]) | inhibition [5] | Activity (MCF7 [6]) | Activity (MCF7 [7])
Cc1noc([C@@H]2[C@@H](c3ccc(Cl)cc3)[C@H](C(F)(F)F)N[C@@]23C(=O)Nc2ccccc23)c1[N+](=O)[O-] | > 20 | Non-Toxic | – | 1.14 | – | – | – | –
Cc1noc([C@@H]2[C@@H](c3ccccc3)[C@H](C(F)(F)F)N[C@@]23C(=O)Nc2ccccc23)c1[N+](=O)[O-] | 17.6 | Non-Toxic | – | 0.38 | – | – | – | –
Cc1onc(C(=O)N2CCN(C(c3ccc(Cl)cc3)c3ccc(Cl)cc3)CC2)c1[N+](=O)[O-] | > 20 | – | – | 0.076 | – | – | – | –
Cc1noc([C@@H]2[C@@H](c3ccc([N+](=O)[O-])cc3)[C@H](C(F)(F)F)N[C@@]23C(=O)Nc2ccccc23)c1[N+](=O)[O-] | > 20 | Non-Toxic | – | 5.36 | – | – | – | –
CC(=O)N1C(=O)[C@@]2(N[C@@H](C(F)(F)F)[C@H](c3ccccc3)[C@H]2c2onc(C)c2[N+](=O)[O-])c2ccccc21 | > 20 | Non-Toxic | > 10 | 3.23 | – | – | – | –
Cc1noc([C@@H]2[C@@H](c3ccccc3)[C@H](C(F)(F)F)N[C@@]23C(=O)Nc2ccc([N+](=O)[O-])cc23)c1[N+](=O)[O-] | > 20 | Non-Toxic | – | 4.75 | – | – | – | –
Cc1ccc([C@H]2[C@H](C(F)(F)F)N[C@@]3(C(=O)Nc4ccccc43)[C@@H]2c2onc(C)c2[N+](=O)[O-])cc1 | 18.8 | Non-Toxic | – | 2.81 | – | – | – | –
Cc1noc([C@@H]2[C@@H](c3cc(Cl)ccc3Cl)[C@H](C(F)(F)F)N[C@@]23C(=O)Nc2ccccc23)c1[N+](=O)[O-] | > 20 | Non-Toxic | > 10 | 3.98 | – | – | – | –
COc1ccc([C@H]2[C@H](C(F)(F)F)N[C@@]3(C(=O)Nc4ccccc43)[C@@H]2c2onc(C)c2[N+](=O)[O-])cc1OC | > 20 | Non-Toxic | – | 4.13 | – | – | – | –
Cc1noc([C@@H]2[C@@H](c3ccccc3)[C@H](C(F)(F)F)N[C@@]23C(=O)Nc2ccc(Br)cc23)c1[N+](=O)[O-] | 16.3 | Non-Toxic | – | 0.55 | – | – | – | –
Cc1noc([C@@H]2[C@@H](c3ccccc3Cl)[C@H](C(F)(F)F)N[C@@]23C(=O)Nc2ccccc23)c1[N+](=O)[O-] | > 20 | Non-Toxic | > 10 | 3.77 | – | – | – | –
Cc1noc([C@@H]2[C@@H](c3ccc(F)cc3)[C@H](C(F)(F)F)N[C@@]23C(=O)Nc2ccccc23)c1[N+](=O)[O-] | 17.4 | Non-Toxic | – | 0.55 | – | – | – | –
Cc1noc([C@@H]2[C@@H](c3ccccc3)[C@H](C(F)(F)F)N[C@@]23C(=O)Nc2ccc(F)cc23)c1[N+](=O)[O-] | 15.6 | Non-Toxic | – | 0.21 | – | – | – | –
Cc1noc([C@@H]2[C@@H](c3cccc(Br)c3)[C@H](C(F)(F)F)N[C@@]23C(=O)Nc2ccccc23)c1[N+](=O)[O-] | > 20 | Non-Toxic | – | 2.31 | – | – | – | –
Cc1noc([C@@H]2[C@@H](c3ccccc3)[C@H](C(F)(F)F)N[C@@]23C(=O)Nc2cc(Br)ccc23)c1[N+](=O)[O-] | 13.7 | Non-Toxic | – | 0.17 | – | – | Active | Active
